These results are taken from patent US20240308976A1, “COMPOUNDS THAT MEDIATE PROTEIN DEGRADATION AND USES THEREOF” (Monte Rosa Therapeutics, Inc., priority 2021, published 2024).

A value given as a limit tells only on which side of the number the result lay.

In one assay the target is T1, GSPT1 (Homo sapiens, UniProt P15170+Q96SW2).
T1 construct: CAL-51 cells were purchased from DSMZ (cat. Number ACC302); host or cells: CAL-51
As to the kind of experiment: Immunofluorescence assay for activity to degrade GSPT1 in CAL-51 cells. The settings on record: 6 h treatment, read-out: IF Class (GSPT1 degradation, DC50). In kind it is cell-based. The method, boiled down: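 CAL-51 cells treated 6 h with compound (30 μM to 0.1 nM), fixed, immunostained for GSPT1 with DAPI and phalloidin counterstains, imaged by high-content microscopy. Mean per-cell GSPT1 intensity normalized to controls; DC50 by non-linear regression.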

A further assay concerns the target CRBN-DDB1 (Homo sapiens, UniProt Q96SW2). Description: Compound binding to CRBN by HTRF assay. As to conditions: CRBN-DDB1 2.5 nM, Cy5-Thalidomide 100 nM, 30 min at ambient temperature; read-out: HTRF Class (Cereblon binding, HTRF IC50). On the procedure: Example 146: Compound Binding to CRBN by HTRF Assay
Compound activity was monitored in a Homogenous Time-Resolved Fluorescence (HTRF) assay using 1-[5-({2-[2-(2-{[2-(2,6-dioxopiperidin-3-yl)-1,3-dioxo-2,3-dihydro-1H-isoindol-4-yl]oxy}acetamido)ethoxy]ethyl}carbamoyl)pentyl]-3,3-dimethyl-2-[(1E,3E)-5-[(2E)-1,3,3-trimethyl-5-sulfo-2,3-dihydro-1H-indol-2-ylidene]penta-1,3-dien-1-yl]-3H-indol-1-ium-5-sulfonate as a fluorescent probe. Biochemical assays were conducted in Greiner white 384 well HiBase plates (Cat. No 784075-25) in 10 μL total volume. A one pot detection solution of CRBN-DDB1 (2.5 nM), Anti-His Terbium Cryptate Gold (1X, PerkinElmer Cat. #: 61HI2TLB), and Cy5-Thalidomide (100 nM, Tenova Cat.: T52461) was prepared in 20 mM HEPES, 20 mM NaCl, 0.2 mM TCEP, 0.2 mM EDTA, and 0.005% Tween20 was dispensed to each assay plate. Compounds were stored in dry, ambient temperatures at 10 mM. A 10-point, 1:3 dilution series was prepared from 10 mM stock concentrations in Echo-compatible LDV plates. 10 nL of each compound dilution series was dispensed into assays wells using an Echo 650 (Labcyte inc. USA). 10 nL of 10 mM Lenalidomide was transferred into the active-control wells for the assay and 10 nL of DMSO was transferred into the neutral-control wells. The assay was then allowed to incubate for 30 min at ambient temperature after transferring compound. Plate measurements were taken on a Pherastar FSX (BMG Labtech, Germany) using the HTRF Red filter (Ex. 337 nm, em1: 620 nm, em2: 665 nm) (Flashes: 50, Integration time: 60-400 us, Z-height: 10 mm, Ratio-multiplier: 10,000). The HTRF signal was then subsequently normalized to the neutral and active controls. Analysis and IC50 values were derived using KNIME analytics (KNIME Zurich) transformation and fitting within Collaborative Drug Discovery (Collaborative Drug Discovery USA). Ki was derived from the geometric mean of the IC50 values using the Cheng-Prustoff transformation.
In Table 2, each compound is assigned a class (HTRF class) indicating the ability for Cereblon binding by means of their HTRF IC50 values according to […]: A, B, C or D. According to the code, A represents an IC50 value of ≤100 nM, B represents an IC50 value>100 nM and ≤1000 nM, C represents an IC50 value>1000 nM. IF Class assigns each compound a code indicating the ability for GSPT1 degradation: A, B or C. According to the code, A represents a DC50 value of ≤30 nM, B represents a DC50 value>30 nM and ≤300 nM and C represents a DC50 value of >300 nM.

T1 sequence (P15170 whole entry): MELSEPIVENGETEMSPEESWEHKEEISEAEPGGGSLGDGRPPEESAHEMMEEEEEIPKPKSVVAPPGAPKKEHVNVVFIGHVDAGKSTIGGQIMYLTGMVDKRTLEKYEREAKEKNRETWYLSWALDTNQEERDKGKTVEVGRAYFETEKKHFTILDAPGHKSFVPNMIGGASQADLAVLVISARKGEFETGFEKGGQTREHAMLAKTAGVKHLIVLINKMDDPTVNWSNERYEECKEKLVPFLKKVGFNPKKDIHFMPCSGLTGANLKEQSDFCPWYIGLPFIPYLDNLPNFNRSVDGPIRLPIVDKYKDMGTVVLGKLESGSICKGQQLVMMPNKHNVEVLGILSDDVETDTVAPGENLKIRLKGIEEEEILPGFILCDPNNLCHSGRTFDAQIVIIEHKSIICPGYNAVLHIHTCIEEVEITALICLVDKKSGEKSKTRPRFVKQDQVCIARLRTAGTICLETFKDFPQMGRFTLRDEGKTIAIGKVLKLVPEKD
T1 sequence (Q96SW2 whole entry): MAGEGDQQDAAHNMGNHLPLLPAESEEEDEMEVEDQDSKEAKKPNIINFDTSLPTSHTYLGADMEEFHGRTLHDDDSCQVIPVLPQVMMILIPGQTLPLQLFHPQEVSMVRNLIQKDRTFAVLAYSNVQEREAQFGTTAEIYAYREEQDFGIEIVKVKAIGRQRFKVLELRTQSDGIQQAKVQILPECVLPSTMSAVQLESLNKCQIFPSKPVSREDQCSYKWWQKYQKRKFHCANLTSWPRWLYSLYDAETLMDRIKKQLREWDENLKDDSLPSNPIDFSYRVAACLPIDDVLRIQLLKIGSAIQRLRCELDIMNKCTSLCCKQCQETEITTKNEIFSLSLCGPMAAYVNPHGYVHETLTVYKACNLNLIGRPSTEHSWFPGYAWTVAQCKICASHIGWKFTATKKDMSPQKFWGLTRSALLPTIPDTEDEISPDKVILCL
T1 sequence (Q16531 2-1140 partner limits assumed): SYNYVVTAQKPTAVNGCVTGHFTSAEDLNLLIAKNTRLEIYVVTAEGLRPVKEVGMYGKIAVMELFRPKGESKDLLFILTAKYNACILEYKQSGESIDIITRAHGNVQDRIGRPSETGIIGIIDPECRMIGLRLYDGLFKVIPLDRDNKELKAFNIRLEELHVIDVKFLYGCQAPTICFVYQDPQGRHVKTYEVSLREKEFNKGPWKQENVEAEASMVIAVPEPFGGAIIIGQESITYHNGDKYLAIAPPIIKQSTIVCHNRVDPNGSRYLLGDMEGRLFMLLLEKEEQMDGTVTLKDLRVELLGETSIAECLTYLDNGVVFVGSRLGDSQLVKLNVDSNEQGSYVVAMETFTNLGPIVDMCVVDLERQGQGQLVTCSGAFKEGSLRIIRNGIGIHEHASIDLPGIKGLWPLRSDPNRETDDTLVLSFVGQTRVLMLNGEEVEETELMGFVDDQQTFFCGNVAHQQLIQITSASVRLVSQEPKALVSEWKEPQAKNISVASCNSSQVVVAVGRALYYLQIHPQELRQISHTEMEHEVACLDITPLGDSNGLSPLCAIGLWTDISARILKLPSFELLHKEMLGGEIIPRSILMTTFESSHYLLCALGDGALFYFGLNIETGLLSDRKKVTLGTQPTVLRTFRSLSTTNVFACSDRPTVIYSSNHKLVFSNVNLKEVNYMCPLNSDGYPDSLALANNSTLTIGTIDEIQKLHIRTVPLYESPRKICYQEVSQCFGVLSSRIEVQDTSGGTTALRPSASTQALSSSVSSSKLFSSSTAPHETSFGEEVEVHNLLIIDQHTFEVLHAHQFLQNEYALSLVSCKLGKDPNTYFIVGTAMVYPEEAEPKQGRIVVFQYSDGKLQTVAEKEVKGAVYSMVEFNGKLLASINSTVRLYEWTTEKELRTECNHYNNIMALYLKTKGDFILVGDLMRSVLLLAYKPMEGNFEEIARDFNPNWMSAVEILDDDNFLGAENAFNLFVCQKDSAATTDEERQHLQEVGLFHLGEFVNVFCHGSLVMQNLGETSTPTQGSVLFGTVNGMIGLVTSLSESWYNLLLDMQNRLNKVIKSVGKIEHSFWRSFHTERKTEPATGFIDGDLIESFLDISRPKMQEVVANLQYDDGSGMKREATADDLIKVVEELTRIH
CRBN-DDB1, sequence (Q96SW2 whole entry): as the sequence (Q96SW2 whole entry) above
CRBN-DDB1, sequence (Q16531 whole entry partner): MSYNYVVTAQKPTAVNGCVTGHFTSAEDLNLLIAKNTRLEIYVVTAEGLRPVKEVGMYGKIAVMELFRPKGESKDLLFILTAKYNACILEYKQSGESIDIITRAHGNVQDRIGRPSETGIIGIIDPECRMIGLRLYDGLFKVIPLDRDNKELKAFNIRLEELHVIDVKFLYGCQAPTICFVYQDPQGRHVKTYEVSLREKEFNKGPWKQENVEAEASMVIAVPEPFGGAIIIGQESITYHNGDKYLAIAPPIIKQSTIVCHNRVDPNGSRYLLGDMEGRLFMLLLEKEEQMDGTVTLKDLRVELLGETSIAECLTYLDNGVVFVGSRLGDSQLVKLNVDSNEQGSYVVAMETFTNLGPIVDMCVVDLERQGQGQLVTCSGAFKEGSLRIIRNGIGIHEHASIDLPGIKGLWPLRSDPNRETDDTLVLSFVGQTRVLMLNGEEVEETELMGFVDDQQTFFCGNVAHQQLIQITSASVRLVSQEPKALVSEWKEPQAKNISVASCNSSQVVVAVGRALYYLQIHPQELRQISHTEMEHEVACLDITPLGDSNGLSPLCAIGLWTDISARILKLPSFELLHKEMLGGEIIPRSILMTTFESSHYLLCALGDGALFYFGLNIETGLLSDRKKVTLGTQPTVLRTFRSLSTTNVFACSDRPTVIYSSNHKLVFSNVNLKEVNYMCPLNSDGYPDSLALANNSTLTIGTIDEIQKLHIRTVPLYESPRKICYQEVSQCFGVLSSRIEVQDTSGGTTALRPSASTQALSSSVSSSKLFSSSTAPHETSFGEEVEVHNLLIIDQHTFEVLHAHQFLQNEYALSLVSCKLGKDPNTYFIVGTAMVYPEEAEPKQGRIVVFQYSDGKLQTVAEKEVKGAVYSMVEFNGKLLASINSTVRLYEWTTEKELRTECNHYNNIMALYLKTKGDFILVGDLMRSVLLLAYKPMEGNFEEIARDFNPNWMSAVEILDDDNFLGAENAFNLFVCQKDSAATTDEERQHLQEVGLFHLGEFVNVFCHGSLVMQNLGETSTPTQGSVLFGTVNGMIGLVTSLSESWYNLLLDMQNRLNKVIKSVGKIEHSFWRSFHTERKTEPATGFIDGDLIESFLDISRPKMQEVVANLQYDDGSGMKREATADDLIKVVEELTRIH

For the compound `O=C1CCC(c2c(F)cc(N3CC(OC(=O)Nc4ccc(F)c(OC(F)F)c4)C3)cc2F)C(=O)N1` (centres unmarked) [Compound 32, 1-(4-(2,6-dioxopiperidin-3-yl)-3,5-difluorophenyl)azetidin-3-yl (3-(difluoromethoxy)-4-fluorophenyl)carbamate], on GSPT1, the DC50 was no more than 30 nM. Besides, the half-maximal inhibitory concentration (IC50) at CRBN-DDB1 was 100 to 1000 nM.
The corresponding values for `O=C1CCC(c2c(F)cc(N3CC(OC(=O)Nc4cc(OC(F)(F)F)ccc4F)C3)cc2F)C(=O)N1` (centres unmarked) [Compound 33, 1-(4-(2,6-dioxopiperidin-3-yl)-3,5-difluorophenyl)azetidin-3-yl (2-fluoro-5-(trifluoromethoxy)phenyl)carbamate] are no more than 30 nM and 100 to 1000 nM.
Take `O=C1CCC(c2c(F)cc(N3CC(OC(=O)Nc4cc(F)cc(Cl)c4)C3)cc2F)C(=O)N1` (centres unmarked) [Compound 34, 1-(4-(2,6-dioxopiperidin-3-yl)-3,5-difluorophenyl)azetidin-3-yl(3-chloro-5-fluorophenyl)carbamate]: the DC50 at GSPT1 was 30 to 300 nM. The IC50 on CRBN-DDB1 is 100 to 1000 nM.
The corresponding values for `Cc1cc(C)cc(NC(=O)NC2CN(c3ccc(C4CCC(=O)NC4=O)c(Cl)c3)C2)c1` (centres unmarked) [Compound 35, 1-(1-(3-chloro-4-(2,6-dioxopiperidin-3-yl)phenyl)azetidin-3-yl)-3-(3,5-dimethylphenyl)urea] are greater than 300 nM and 100 to 1000 nM.
On to `O=C1CCC(c2ccc(N3CC(OC(=O)Nc4cccc(OC(F)(F)F)c4)C3)cc2Cl)C(=O)N1` (centres unmarked) [Compound 36, 1-(3-chloro-4-(2,6-dioxopiperidin-3-yl)phenyl)azetidin-3-yl (3-(trifluoromethoxy)phenyl)carbamate], for which, at GSPT1, the DC50 lay in the range of 30 to 300 nM. For the same compound, the IC50 at CRBN-DDB1 was greater than 1000 nM.
With `O=C1CCC(c2c(F)cc(N3CC(OC(=O)Nc4cccc(OC5CC5)c4)C3)cc2F)C(=O)N1` (centres unmarked) [Compound 37, 1-(4-(2,6-dioxopiperidin-3-yl)-3,5-difluorophenyl)azetidin-3-yl (3-cyclopropoxyphenyl)carbamate], at GSPT1, the DC50 is no more than 30 nM. Besides, at CRBN-DDB1, the IC50 fell in the range of 100 to 1000 nM.
For the compound `O=C1CCC(c2c(F)cc(N3CC(OC(=O)Nc4cc(Cl)cc(OC(F)F)c4)C3)cc2F)C(=O)N1` (centres unmarked) [Compound 38, 1-(4-(2,6-dioxopiperidin-3-yl)-3,5-difluorophenyl)azetidin-3-yl(3-chloro-5-(difluoromethoxy)phenyl) carbamate], the DC50 at GSPT1 is 30 to 300 nM. Besides, at CRBN-DDB1, the IC50 is 100 to 1000 nM.
Regarding `Cc1cc(NC(=O)OC2CN(c3cc(F)c(C4CCC(=O)NC4=O)c(F)c3)C2)c(F)cc1Cl` (centres unmarked) [Compound 39, 1-(4-(2,6-dioxopiperidin-3-yl)-3,5-difluorophenyl)azetidin-3-yl(4-chloro-2-fluoro-5-methylphenyl)carbamate], the DC50 at GSPT1 was no more than 30 nM. Further, the IC50 at CRBN-DDB1 was 100 to 1000 nM.
Take `CC1(c2ccc(NC(=O)NC3CN(c4cc(F)c(C5CCC(=O)NC5=O)c(F)c4)C3)cn2)CC1` (centres unmarked) [Compound 40, 1-(1-(4-(2,6-dioxopiperidin-3-yl)-3,5-difluorophenyl)azetidin-3-yl)-3-(6-(1-methylcyclopropyl)pyridin-3-yl)urea]: on GSPT1, the DC50 was no more than 30 nM. Further, at CRBN-DDB1, the IC50 lay within 100 to 1000 nM.
On to `O=C1CCC(c2ccc(N3CC(NC(=O)Nc4cccc(OC(F)(F)F)c4)C3)cc2Cl)C(=O)N1` (centres unmarked) [Compound 41, 1-(1-(3-chloro-4-(2,6-dioxopiperidin-3-yl)phenyl)azetidin-3-yl)-3-(3-(trifluoromethoxy)phenyl)urea], for which the 50% degradation concentration (DC50) on GSPT1 was greater than 300 nM. The IC50 on CRBN-DDB1 fell in the range of 100 to 1000 nM.
As to `Cc1ccc(NC(=O)NC2CN(c3ccc(C4CCC(=O)NC4=O)c(Cl)c3)C2)cc1Cl` (centres unmarked) [Compound 42, 1-(1-(3-chloro-4-(2,6-dioxopiperidin-3-yl)phenyl)azetidin-3-yl)-3-(3-chloro-4-methylphenyl)urea], the DC50 on GSPT1 was in the range of 30 to 300 nM. For the same compound, the IC50 at CRBN-DDB1 lay within 100 to 1000 nM.
With `CC1(c2ccc(NC(=O)OC3CN(c4cc(F)c(C5CCC(=O)NC5=O)c(F)c4)C3)cn2)CC1` (centres unmarked) [Compound 43, 1-(4-(2,6-dioxopiperidin-3-yl)-3,5-difluorophenyl)azetidin-3-yl(6-(1-methylcyclopropyl)pyridin-3-yl) carbamate], on GSPT1, the DC50 is no more than 30 nM. Further, the IC50 on CRBN-DDB1 is 100 to 1000 nM.
For the compound `O=C1CCC(c2c(F)cc(N3CC(OC(=O)Nc4cc(F)cc(OC(F)F)c4)C3)cc2F)C(=O)N1` (centres unmarked) [Compound 44, 1-(4-(2,6-dioxopiperidin-3-yl)-3,5-difluorophenyl)azetidin-3-yl (3-(difluoromethoxy)-5-fluorophenyl)carbamate], on GSPT1, the DC50 fell in the range of 30 to 300 nM. For the same compound, the IC50 on CRBN-DDB1 was in the range of 100 to 1000 nM.
Take `O=C1CCC(c2c(F)cc(N3CC(OC(=O)Nc4ccc(-c5ccccn5)cc4)C3)cc2F)C(=O)N1` (centres unmarked) [Compound 45, 1-(4-(2,6-dioxopiperidin-3-yl)-3,5-difluorophenyl)azetidin-3-yl (4-(pyridin-2-yl)phenyl)carbamate]: the DC50 at GSPT1 was no more than 30 nM. Further, the IC50 on CRBN-DDB1 fell in the range of 100 to 1000 nM.
The corresponding values for `COc1c(N2CC(OC(=O)Nc3ccc(C)c(Cl)c3)C2)cc(F)c(C2CCC(=O)NC2=O)c1F` (centres unmarked) [Compound 46, 1-(4-(2,6-dioxopiperidin-3-yl)-3,5-difluoro-2-methoxyphenyl)azetidin-3-yl (3-chloro-4-methylphenyl) carbamate] are 30 to 300 nM and 100 to 1000 nM.
For `N#Cc1cc(Cl)cc(NC(=O)OC2CN(c3cc(F)c(C4CCC(=O)NC4=O)c(F)c3)C2)c1` (centres unmarked) [Compound 47, 1-(4-(2,6-dioxopiperidin-3-yl)-3,5-difluorophenyl)azetidin-3-yl(3-chloro-5-cyanophenyl)carbamate] the same measures were 30 to 300 nM and 100 to 1000 nM.
For the compound `Cc1cc(NC(=O)OC2CN(c3cc(F)c(C4CCC(=O)NC4=O)c(F)c3)C2)cc(C)c1C#N` (centres unmarked) [Compound 48, 1-(4-(2,6-dioxopiperidin-3-yl)-3,5-difluorophenyl)azetidin-3-yl (4-cyano-3,5-dimethylphenyl) carbamate], the DC50 at GSPT1 was no more than 30 nM. Further, on CRBN-DDB1, the half-inhibitory concentration (IC50) was 100 to 1000 nM.
With `Cc1cc(C#N)cc(NC(=O)OC2CN(c3cc(F)c(C4CCC(=O)NC4=O)c(F)c3)C2)c1` (centres unmarked) [Compound 49, 1-(4-(2,6-dioxopiperidin-3-yl)-3,5-difluorophenyl)azetidin-3-yl (3-cyano-5-methylphenyl) carbamate], the DC50 at GSPT1 fell in the range of 30 to 300 nM. Moreover, the IC50 at CRBN-DDB1 was in the range of 100 to 1000 nM.
On to `O=C1CCC(c2c(F)cc(N3CC(NC(=O)Nc4cc(F)cc(OC(F)(F)F)c4)C3)cc2F)C(=O)N1` (centres unmarked) [Compound 50, 1-(1-(4-(2,6-dioxopiperidin-3-yl)-3,5-difluorophenyl)azetidin-3-yl)-3-(3-fluoro-5-(trifluoromethoxy)phenyl)urea], for which the DC50 at GSPT1 was in the range of 30 to 300 nM. Moreover, the IC50 on CRBN-DDB1 was in the range of 100 to 1000 nM.
For the compound `O=C1CCC(c2c(F)cc(N3CC(OC(=O)Nc4cnc(-c5ccccc5)nc4)C3)cc2F)C(=O)N1` (centres unmarked) [Compound 51, 1-(4-(2,6-dioxopiperidin-3-yl)-3,5-difluorophenyl)azetidin-3-yl(2-phenylpyrimidin-5-yl)carbamate], at GSPT1, the DC50 was no more than 30 nM. At CRBN-DDB1, the concentration for half-maximal inhibition (IC50) fell in the range of 100 to 1000 nM.
With `Cc1c(Cl)cc(NC(=O)OC2CN(c3cc(F)c(C4CCC(=O)NC4=O)c(F)c3)C2)cc1OCCN1CCOCC1` (centres unmarked) [Compound 52, 1-(4-(2,6-dioxopiperidin-3-yl)-3,5-difluorophenyl)azetidin-3-yl(3-chloro-4-methyl-5-(2-morpholinoethoxy)phenyl)carbamate], on GSPT1, the DC50 was no more than 30 nM. In addition, the IC50 on CRBN-DDB1 lay in the range of 100 to 1000 nM.
Turning to `Cc1c(Cl)cc(NC(=O)OC2CN(c3cc(F)c(C4CCC(=O)NC4=O)c(F)c3)C2)cc1C#N` (centres unmarked) [Compound 53, 1-(4-(2,6-dioxopiperidin-3-yl)-3,5-difluorophenyl)azetidin-3-yl(3-chloro-5-cyano-4-methylphenyl) carbamate], at GSPT1, the DC50 lay in the range of 30 to 300 nM. For the same compound, at CRBN-DDB1, the IC50 lay in the range of 100 to 1000 nM.
